{"source": "patent US12252524B2", "about": "“GIP/GLP1 co-agonist compounds” (Eli Lilly and Company, priority 2018, dated 2025)", "key": {"[1]": {"target": "T1, gastric inhibitory peptide receptor (GIPR) (Homo sapiens, UniProt P48546)", "T1 sequence (P48546 22-466)": "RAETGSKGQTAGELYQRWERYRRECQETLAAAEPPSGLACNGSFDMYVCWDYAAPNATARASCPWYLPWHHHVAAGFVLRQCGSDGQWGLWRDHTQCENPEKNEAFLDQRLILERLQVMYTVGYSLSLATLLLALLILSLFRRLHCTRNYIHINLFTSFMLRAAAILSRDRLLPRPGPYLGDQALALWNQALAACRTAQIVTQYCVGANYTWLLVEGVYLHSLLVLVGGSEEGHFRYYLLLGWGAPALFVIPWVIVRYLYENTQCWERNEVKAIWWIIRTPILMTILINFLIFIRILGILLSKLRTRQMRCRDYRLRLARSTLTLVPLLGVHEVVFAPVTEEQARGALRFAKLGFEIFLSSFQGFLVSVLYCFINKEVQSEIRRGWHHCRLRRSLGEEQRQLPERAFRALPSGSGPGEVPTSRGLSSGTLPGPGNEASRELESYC", "experiment": "cAMP pharmacological functional assay in presence of casein, hGIPR", "format": "cell-based", "details": "HEK293 cells expressing hGIPR, 0.1% Casein, geometric mean; read-out: hGIPR cAMP Rel EC50 nM (SEM, n)"}, "[2]": {"target": "human GLP-1 receptor (GLP-1R) (Homo sapiens, UniProt P43220)", "sequence (P43220 24-463)": "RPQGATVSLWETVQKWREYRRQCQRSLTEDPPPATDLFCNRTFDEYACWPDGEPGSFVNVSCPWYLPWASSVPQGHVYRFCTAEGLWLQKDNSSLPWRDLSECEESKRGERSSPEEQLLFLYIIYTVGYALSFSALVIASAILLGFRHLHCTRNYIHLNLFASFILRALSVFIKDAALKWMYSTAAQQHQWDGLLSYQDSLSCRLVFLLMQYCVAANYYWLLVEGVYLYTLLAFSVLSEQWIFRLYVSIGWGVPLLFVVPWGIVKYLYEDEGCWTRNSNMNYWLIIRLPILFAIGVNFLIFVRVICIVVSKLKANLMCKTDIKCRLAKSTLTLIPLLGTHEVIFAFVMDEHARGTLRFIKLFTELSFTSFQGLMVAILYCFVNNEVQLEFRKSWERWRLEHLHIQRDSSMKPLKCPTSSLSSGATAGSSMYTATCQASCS", "experiment": "cAMP pharmacological functional assay in presence of casein, hGLP-1R", "format": "cell-based", "details": "HEK293 cells expressing hGLP-1R, 0.1% Casein, geometric mean; read-out: hGLP1R cAMP Rel EC50 nM (SEM, n)"}}, "note": "Numbered stars: 1 amine (or outer) side, 2 acyl side, 3 side chain; on linkers, the order of the positions; unused ones are H or OH. Square brackets hold non-standard residues; d marks the D form. Side chains are listed from the residue outwards. Peptide text beside a SMILES is read from it. * marks the point of attachment. C20 diacid = O=C(O)CCCCCCCCCCCCCCCCCCC(=O)*; αMePhe(2-F) = C[C@](N)(Cc1ccccc1F)C(=O)O; γGlu = O=C(O)[C@H](CCC(=O)[*:2])N[*:1]; αMeY = C[C@](N)(Cc1ccc(O)cc1)C(=O)O; 3Pal = N[C@@H](Cc1cccnc1)C(=O)O; 4Pal = N[C@@H](Cc1ccncc1)C(=O)O; αMeL = CC(C)C[C@](C)(N)C(=O)O; Orn = NCCC[C@H](N)C(=O)O; AEEA = NCCOCCOCC(=O)O; Aib = CC(C)(N)C(=O)O", "data": [{"smiles": "CC[C@H](C)[C@H](NC(=O)[C@H](CC(C)C)NC(=O)[C@H](Cc1ccc(O)cc1)NC(=O)[C@@H](CCC(=O)O)NC(=O)[C@@H](NC(=O)[C@H](Cc1ccccc1)NC(=O)[C@@H](NC(=O)C(C)(C)NC(=O)[C@H](CCC(N)=O)NC(=O)[C@H](C)NC(=O)[C@H](CCCCNC(=O)COCCOCCNC(=O)COCCOCCNC(=O)CC[C@H](NC(=O)CCCCCCCCCCCCCCCCCCC(=O)O)C(=O)O)NC(=O)[C@H](CCCN)NC(=O)[C@H](CC(=O)O)NC(=O)[C@H](CC(C)C)NC(=O)[C@](C)(CC(C)C)NC(=O)[C@@H](NC(=O)[C@H](CO)NC(=O)[C@H](Cc1c[nH]cn1)NC(=O)[C@H](CC(=O)O)NC(=O)[C@H](CO)NC(=O)[C@@H](NC(=O)[C@](C)(Cc1ccccc1F)NC(=O)[C@@H](NC(=O)CNC(=O)[C@H](CCC(=O)O)NC(=O)C(C)(C)NC(=O)[C@@H](N)Cc1ccc(O)cc1)[C@@H](C)O)[C@@H](C)O)[C@@H](C)CC)[C@@H](C)O)[C@@H](C)CC)C(=O)N[C@@H](CCC(=O)O)C(=O)NCC(=O)NCC(=O)N1CCC[C@H]1C(=O)N[C@@H](CO)C(=O)N[C@@H](CO)C(=O)NCC(=O)N[C@@H](C)C(=O)N1CCC[C@H]1C(=O)N1CCC[C@H]1C(=O)N1CCC[C@H]1C(=O)N[C@@H](CO)C(N)=O", "note": "[Example 171] (H-Y[Aib]EGT[αMePhe(2-F)]TSDHSI[αMeL]LD[Orn]K([AEEA-AEEA-γGlu-C20 diacid])AQ[Aib]TFI[dE]YLIEGGPSSGAPPPS-NH2)", "values": [{"measurement": "EC50", "setting": "[1]", "value": 0.223, "unit": "nM"}, {"measurement": "EC50", "setting": "[2]", "value": 0.75, "unit": "nM"}]}, {"smiles": "CC[C@H](C)[C@H](NC(=O)[C@H](CC(C)C)NC(=O)[C@](C)(Cc1ccc(O)cc1)NC(=O)[C@@H](CCC(=O)O)NC(=O)[C@@H](NC(=O)[C@H](Cc1ccccc1)NC(=O)[C@H](CCC(=O)O)NC(=O)C(C)(C)NC(=O)[C@H](CCC(N)=O)NC(=O)[C@H](C)NC(=O)[C@H](CCC(N)=O)NC(=O)[C@H](CCCN)NC(=O)[C@H](CC(=O)O)NC(=O)[C@H](CC(C)C)NC(=O)[C@](C)(CC(C)C)NC(=O)[C@@H](NC(=O)[C@H](CO)NC(=O)[C@H](Cc1ccncc1)NC(=O)[C@H](CC(=O)O)NC(=O)[C@H](CO)NC(=O)[C@@H](NC(=O)[C@](C)(Cc1ccccc1F)NC(=O)[C@@H](NC(=O)CNC(=O)[C@H](CCC(=O)O)NC(=O)C(C)(C)NC(=O)[C@@H](N)Cc1ccc(O)cc1)[C@@H](C)O)[C@@H](C)O)[C@@H](C)CC)[C@@H](C)CC)C(=O)N[C@@H](CCC(=O)O)C(=O)NCC(=O)NCC(=O)N1CCC[C@H]1C(=O)N[C@@H](CO)C(=O)N[C@@H](CO)C(=O)NCC(=O)N[C@@H](C)C(=O)N1CCC[C@H]1C(=O)N1CCC[C@H]1C(=O)N1CCC[C@H]1C(=O)N[C@@H](CO)C(N)=O", "note": "[Example 285] (H-Y[Aib]EGT[αMePhe(2-F)]TSD[4Pal]SI[αMeL]LD[Orn]QAQ[Aib]EFI[dE][αMeY]LIEGGPSSGAPPPS-NH2)", "values": [{"measurement": "EC50", "setting": "[1]", "value": 0.0884, "unit": "nM"}, {"measurement": "EC50", "setting": "[2]", "value": 0.072, "unit": "nM"}]}, {"smiles": "CC[C@H](C)[C@H](NC(=O)[C@H](CC(C)C)NC(=O)[C@H](Cc1ccc(O)cc1)NC(=O)C(C)(C)NC(=O)[C@@H](NC(=O)[C@H](Cc1ccccc1)NC(=O)[C@H](CCC(=O)O)NC(=O)C(C)(C)NC(=O)[C@H](CCC(N)=O)NC(=O)[C@H](C)NC(=O)[C@H](CCCCNC(=O)COCCOCCNC(=O)COCCOCCNC(=O)CC[C@H](NC(=O)CCCCCCCCCCCCCCCCCCC(=O)O)C(=O)O)NC(=O)[C@H](CCC(=O)O)NC(=O)[C@H](CC(=O)O)NC(=O)[C@H](CC(C)C)NC(=O)[C@](C)(CC(C)C)NC(=O)[C@@H](NC(=O)[C@H](CO)NC(=O)[C@H](Cc1cccnc1)NC(=O)[C@H](CC(=O)O)NC(=O)[C@H](CO)NC(=O)[C@@H](NC(=O)[C@](C)(Cc1ccccc1F)NC(=O)[C@@H](NC(=O)CNC(=O)[C@H](CCC(=O)O)NC(=O)C(C)(C)NC(=O)[C@@H](N)Cc1ccc(O)cc1)[C@@H](C)O)[C@@H](C)O)[C@@H](C)CC)[C@@H](C)CC)C(=O)N[C@@H](CCC(=O)O)C(=O)NCC(=O)NCC(=O)N1CCC[C@H]1C(=O)N[C@@H](CO)C(=O)N[C@@H](CO)C(=O)NCC(=O)N[C@@H](C)C(=O)N1CCC[C@H]1C(=O)N1CCC[C@H]1C(=O)N1CCC[C@H]1C(=O)N[C@@H](CO)C(N)=O", "note": "[Example 188] (H-Y[Aib]EGT[αMePhe(2-F)]TSD[3Pal]SI[αMeL]LDEK([AEEA-AEEA-γGlu-C20 diacid])AQ[Aib]EFI[Aib]YLIEGGPSSGAPPPS-NH2)", "values": [{"measurement": "EC50", "setting": "[1]", "value": 0.121, "unit": "nM"}, {"measurement": "EC50", "setting": "[2]", "value": 0.13, "unit": "nM"}]}, {"smiles": "CC[C@H](C)[C@H](NC(=O)[C@H](CC(C)C)NC(=O)[C@](C)(Cc1ccc(O)cc1)NC(=O)[C@@H](CCC(=O)O)NC(=O)[C@@H](NC(=O)[C@H](Cc1ccccc1)NC(=O)[C@H](CCC(=O)O)NC(=O)C(C)(C)NC(=O)[C@H](CCC(N)=O)NC(=O)[C@H](C)NC(=O)[C@H](CCCCN)NC(=O)[C@H](CCCN)NC(=O)[C@H](CC(=O)O)NC(=O)[C@H](CC(C)C)NC(=O)[C@](C)(CC(C)C)NC(=O)[C@@H](NC(=O)[C@H](CO)NC(=O)[C@H](Cc1ccncc1)NC(=O)[C@H](CC(=O)O)NC(=O)[C@H](CO)NC(=O)[C@@H](NC(=O)[C@](C)(Cc1ccccc1F)NC(=O)[C@@H](NC(=O)CNC(=O)[C@H](CCC(=O)O)NC(=O)C(C)(C)NC(=O)[C@@H](N)Cc1ccc(O)cc1)[C@@H](C)O)[C@@H](C)O)[C@@H](C)CC)[C@@H](C)CC)C(=O)N[C@@H](CCC(=O)O)C(=O)NCC(=O)NCC(=O)N1CCC[C@H]1C(=O)N[C@@H](CO)C(=O)N[C@@H](CO)C(=O)NCC(=O)N[C@@H](C)C(=O)N1CCC[C@H]1C(=O)N1CCC[C@H]1C(=O)N1CCC[C@H]1C(=O)N[C@@H](CO)C(=O)N[C@@H](CS)C(N)=O", "note": "[Example 286] (H-Y[Aib]EGT[αMePhe(2-F)]TSD[4Pal]SI[αMeL]LD[Orn]KAQ[Aib]EFI[dE][αMeY]LIEGGPSSGAPPPSC-NH2)", "values": [{"measurement": "EC50", "setting": "[1]", "value": 0.184, "unit": "nM"}, {"measurement": "EC50", "setting": "[2]", "value": 0.0602, "unit": "nM"}]}, {"smiles": "CC[C@H](C)[C@H](NC(=O)[C@H](CC(C)C)NC(=O)[C@H](Cc1ccc(O)cc1)NC(=O)[C@@H](CCC(=O)O)NC(=O)[C@@H](NC(=O)[C@H](Cc1ccccc1)NC(=O)[C@H](CCC(=O)O)NC(=O)C(C)(C)NC(=O)[C@H](CCC(N)=O)NC(=O)[C@H](C)NC(=O)[C@H](CCC(N)=O)NC(=O)[C@H](CCC(=O)O)NC(=O)[C@H](CC(=O)O)NC(=O)[C@H](CC(C)C)NC(=O)[C@](C)(CC(C)C)NC(=O)[C@@H](NC(=O)[C@H](CO)NC(=O)[C@H](Cc1ccc(O)cc1)NC(=O)[C@H](CC(=O)O)NC(=O)[C@H](CO)NC(=O)[C@@H](NC(=O)[C@](C)(Cc1ccccc1F)NC(=O)[C@@H](NC(=O)CNC(=O)[C@H](CCC(=O)O)NC(=O)C(C)(C)NC(=O)[C@@H](N)Cc1ccc(O)cc1)[C@@H](C)O)[C@@H](C)O)[C@@H](C)CC)[C@@H](C)CC)C(=O)N[C@@H](CCC(=O)O)C(=O)NCC(=O)NCC(=O)N1CCC[C@H]1C(=O)N[C@@H](CO)C(=O)N[C@@H](CO)C(=O)NCC(=O)N[C@@H](C)C(=O)N1CCC[C@H]1C(=O)N1CCC[C@H]1C(=O)N1CCC[C@H]1C(=O)N[C@@H](CO)C(N)=O", "note": "[Example 277] (H-Y[Aib]EGT[αMePhe(2-F)]TSDYSI[αMeL]LDEQAQ[Aib]EFI[dE]YLIEGGPSSGAPPPS-NH2; N-terminus assumed)", "values": [{"measurement": "EC50", "setting": "[1]", "value": 0.0554, "unit": "nM"}, {"measurement": "EC50", "setting": "[2]", "value": 0.133, "unit": "nM"}]}, {"smiles": "CC[C@H](C)[C@H](NC(=O)[C@H](CCCCN)NC(=O)[C@H](CC(C)C)NC(=O)[C@H](CC(C)C)NC(=O)[C@@H](NC(=O)[C@H](CO)NC(=O)[C@H](Cc1ccc(O)cc1)NC(=O)[C@H](CC(=O)O)NC(=O)[C@H](CO)NC(=O)[C@@H](NC(=O)[C@H](Cc1ccccc1)NC(=O)[C@@H](NC(=O)CNC(=O)[C@H](CCC(=O)O)NC(=O)C(C)(C)NC(=O)[C@@H](N)Cc1ccc(O)cc1)[C@@H](C)O)[C@@H](C)O)[C@@H](C)CC)C(=O)N[C@@H](C)C(=O)N[C@@H](CCC(N)=O)C(=O)NC(C)(C)C(=O)N[C@@H](C)C(=O)N[C@@H](Cc1ccccc1)C(=O)N[C@H](C(=O)N[C@@H](CCC(=O)O)C(=O)N[C@@H](Cc1ccc(O)cc1)C(=O)N[C@@H](CC(C)C)C(=O)N[C@H](C(=O)N[C@@H](CCC(=O)O)C(=O)NCC(=O)NCC(=O)N1CCC[C@H]1C(=O)N[C@@H](CO)C(=O)N[C@@H](CO)C(=O)NCC(=O)N[C@@H](C)C(=O)N1CCC[C@H]1C(=O)N1CCC[C@H]1C(=O)N[C@@H](CCCCNC(=O)COCCOCCNC(=O)COCCOCCNC(=O)CC[C@H](NC(=O)CCCCCCCCCCCCCCCCCCC(=O)O)C(=O)O)C(=O)N[C@@H](CO)C(N)=O)[C@@H](C)CC)[C@@H](C)CC", "note": "[Example 77] (H-Y[Aib]EGTFTSDYSILLKIAQ[Aib]AFIEYLIEGGPSSGAPPK([AEEA-AEEA-γGlu-C20 diacid])S-NH2)", "values": [{"measurement": "EC50", "setting": "[1]", "value": 135, "unit": "nM"}, {"measurement": "EC50", "setting": "[2]", "value": "> 2000", "unit": "nM"}]}]}
